Data taken from article PMC7940618, “Specific inhibition of the Survivin–CRM1 interaction by peptide-modified molecular tweezers” (Nature Communications, 2021).
“And” between values parts separate entries of the source, which are not always exact repeats. Equal values may be shown once. Read-outs that look alike come from different tables or passages of the source. Peptide text beside a SMILES is read from it.

Experiments:
Format in all cases: binding
[1] = molecular target: T1, GST-Survivin120–CRM1 interaction (Homo sapiens, UniProt O15392); assay: Pull-down with GST-Survivin120 wildtype bait, CRM1 and RanQ69L; conditions: for CRM1: Peak area determined with ImageJ / CRM1 intensity_normalised on GST-Surv intensity (samples 1-14) / CRM1: Control w/o GST-Survivin subtracted (sample 16 or 23): CRM1 band; for CRM1: Peak area determined with ImageJ / CRM1 intensity_normalised on GST-Surv intensity (samples 1-14) / CRM1: Control w/o GST-Survivin subtracted (sample 16 or 23) / CRM1 intensity_normalised on GST-Surv intensity (samples 1-14) and CRM1 intensity w/o incubation (sample 15 or 22): samples 15-21 (WT); for CRM1: Control w/o GST-Survivin subtracted (sample 16 or 23): sample 16 subtracted; for GST-Surv: Peak area determined with ImageJ / GST-Surv: Control w/o GST-Survivin subtracted (sample 2 or 9): GST-Surv bait band; for GST-Surv: Peak area determined with ImageJ: samples 1-7 (WT according to the summary in r39-r41); for GST-Surv: Control w/o GST-Survivin subtracted (sample 2 or 9): samples 1-7 (WT), sample 2 subtracted; for Normalised CRM1 intensity, summary of replicates I and II: WT, w/o tweezer = 100, replicates I and II
T1 construct: the only published NMR structure originated from a truncated Survivin (aa 1-120) with improved solubility; made in house; host or cells: Escherichia coli soluBL21
T1 sequence (O15392 1-120): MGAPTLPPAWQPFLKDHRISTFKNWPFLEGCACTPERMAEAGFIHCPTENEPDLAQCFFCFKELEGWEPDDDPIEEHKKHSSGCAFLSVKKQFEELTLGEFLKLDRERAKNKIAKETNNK
Protocol: (§1) Next, we investigated whether tweezer inhibition of the export complex assembly is compromised upon lysine mutations near the NES. Therefore, pull-down experiments were performed with recombinant GST-tagged Survivin120 wildtype and K90/103T as bait proteins, tweezers, recombinant CRM1 and RanQ69L (Fig. 7g). Controls lacking the Survivin baits were included, as well as isolated peptides without tweezer (Fig. 7h). […] However, for the double lysine mutant GST-Survivin120-K90/103T even the tweezer conjugates lost most of their inhibitory power toward the essential Survivin–CRM1 interaction.
(§2) All pull-down assays were performed at room temperature in pull-down buffer (PBS, pH 7.4, 1 mM DTT, 0.02 Triton X-100). GST fusion proteins were immobilized on 50 μL GSH-coated Sepharose 4B beads from GE Healthcare. The beads were prior equilibrated and blocked with 500 μL pull-down blocking buffer (PBS, pH 7.4, 1 (w/v) BSA, 1 mM DTT, 0.02 (v/v) Triton X-100) for 1 h to prevent unspecific binding.
(§3) For analysis of the effective inhibitory tweezer concentration, 200 μg 293T lysate with overexpressed Survivin142-HA was preincubated without ligand or with different concentrations (10 nM to 200 μM) of unmodified tweezer TW, TW-ELTL, TW-ELTLGEFL, or TW-LFEEGLLT for 1 h and then mixed with 35 μg GST-CRM1, 55 μg RanQ69L, and 2 mM dGTP. GSH-beads were incubated with this protein mixture for 2 h under rotation. For analysis of tweezer specificity, 40 μg GST-Survivin120 or GST-Survivin120-K90/103T point mutant was pre-bound to equilibrated GSH-beads in 500 μL pull-down buffer, containing additionally either no ligand or 50 μM unmodified tweezer TW, TW-ELTL, TW-ELTLGEFL, or peptides ELTL and ELTLGEFL, for 1 h under rotation. After washing and blocking, GSH-beads were incubated with a protein mixture consisting of 2 mM dGTP, 50 μg CRM1, and 50 μg RanQ69L for 2 h under rotation.
(§4) Samples of input and beads taken during pull-down experiments were ran on 12.5 SDS gels and transferred onto 0.2 µM PVDF membranes (Amersham Hybond P 0.2) using a PerfectBlue™ tank electro blotter (Peqlab) at 350 mA for 150 min. Membranes were blocked for 1 h using 5% milk powder in TBS buffer containing 0.1% Tween-20. Next, membranes were incubated in primary antibodies against HA (anti-HA, mouse monoclonal, BioLegend, Covance MMS-101R, 1:1,000), GST (anti-GST, mouse monoclonal, Santa Cruz Biotechnology Inc., sc-57753, 1:1000) or CRM1 (anti-CRM1, rabbit polyclonal, Novus Biologicals Ltd., NB100-79802, 1:10,000) overnight at 4 °C. Secondary horseradish peroxidase (HRP)-conjugated antibody (anti-mouse IgG-HRP, sheep, GE Healthcare, NXA931 or anti-rabbit IgG-HRP, donkey, GE Healthcare, NA934) was then added (1:10,000) for 1 h at room temperature. Chemiluminescence was detected and imaged using the Pierce ECL Plus Western Blotting Substrate kit (Thermo Fisher Scientific) and Chemidoc system (Bio-Rad) or film processor Cawomat 2000 IR (CAWO). Western blots were analyzed by densitometric analysis with ImageJ version 1.52p (U.S. National Institutes of Health), measuring the mean gray intensity of protein bands. Uncropped and unprocessed scans of western blots are deposited in the Source Data file.

[2] = molecular target: T2, Survivin120 K90/103T (Homo sapiens, UniProt O15392, K103T/K90T); assay: ITC titration of tweezers with Survivin120 K90/103T mutant
T2 construct: the only published NMR structure originated from a truncated Survivin (aa 1-120) with improved solubility; GST with PreScission site (N); made in house; host or cells: Escherichia coli soluBL21
T2 sequence (O15392 1-120 K90T/K103T): as the sequence (O15392 1-120) above, with K90T, K103T counted along it
Description: If the tweezer-based inhibitors indeed bind to lysines/arginines flanking the NES (K90, K91, K103, R106), their mutation to, e.g., threonine, should abolish the observed effects. For this reason, we generated double and triple Survivin120 mutants lacking these putative tweezer anchor points. Unfortunately, most double mutants and especially the triple mutants were unfolded as evidenced by 1D ^1H NMR (SI6); finally, the correctly folded double threonine mutant Survivin120 K90/103T was chosen for further investigation. […] Next, binding of FAM-labeled tweezers (SI3) to either Survivin120 wildtype or the K90/103T mutant was studied by fluorescence anisotropy (Fig. 7d–f). […] We conclude that lysines 90 and 103 are indeed essential for efficient tweezer binding.
ITC was performed with a MicroCal iTC200 from Malvern Panalytical in PBS, pH 7.4 at 25 °C with molecular tweezers in the cell and Survivin120 in the titration syringe. The protein was dialyzed overnight at 4 °C against the PBS buffer. Ligands were dissolved in the respective dialysis buffer. Then, 300 µM TW were titrated with 300 µM Survivin120 WT or 321 µM Survivin120 K90/103T. Then, 100 µM TW-ELTL, TW-ELTLGEFL, or TW-LFEEGLLT was titrated with 1.2 mM Survivin120 WT or 2.5 mM Survivin120 K90/103T. For reverse titrations, either 33.3 or 34.4 µM Survivin120 in the cell was titrated with 5 mM TW or TW-ELTL in the syringe, respectively. All titrations were performed in PBS, pH 7.4 at 25 °C. Then, 1.5 μL injections were used with 120 s spacing time between injections. The injection rate was set to 0.5 µL/s and the reference power was 5 µcal/s. ITC thermograms were fitted to a one set of sites model with the software Origin (v7.0552) provided with the instrument. Heat of dilution was subtracted as constant from each data point.
ITC thermograms were fitted to a one set of sites model with the software Origin provided with the instrument. Heat of dilution was subtracted as constant from each data point. From three independent experiments (n = 3), one representative example was depicted, and thermodynamic data were derived thereof. For pull-down experiments, only the representative quantification of the depicted western blot is shown. […] Fluorescence anisotropy graphs were generated with GraphPad Prism 5.0. Depicted error bars represent the standard deviation of three independent titrations.

[3] = molecular target: T3, GST-Survivin120-K90/103T–CRM1 interaction (Homo sapiens, UniProt O15392, K103T/K90T); assay: Pull-down with GST-Survivin120-K90/103T bait, CRM1 and RanQ69L; conditions: for CRM1: Peak area determined with ImageJ / CRM1 intensity_normalised on GST-Surv intensity (samples 1-14) / CRM1: Control w/o GST-Survivin subtracted (sample 16 or 23): CRM1 band; for CRM1: Peak area determined with ImageJ / CRM1 intensity_normalised on GST-Surv intensity (samples 1-14) / CRM1: Control w/o GST-Survivin subtracted (sample 16 or 23) / CRM1 intensity_normalised on GST-Surv intensity (samples 1-14) and CRM1 intensity w/o incubation (sample 15 or 22): samples 22-28 (K90/103T); for CRM1: Control w/o GST-Survivin subtracted (sample 16 or 23): sample 23 subtracted; for GST-Surv: Peak area determined with ImageJ / GST-Surv: Control w/o GST-Survivin subtracted (sample 2 or 9): GST-Surv bait band; for GST-Surv: Peak area determined with ImageJ: samples 8-14 (K90/103T according to the summary in r39-r41); for GST-Surv: Control w/o GST-Survivin subtracted (sample 2 or 9): samples 8-14 (K90/103T), sample 9 subtracted; for Normalised CRM1 intensity, summary of replicates I and II: K90/103T, w/o tweezer = 100, replicates I and II
T3 construct: the only published NMR structure originated from a truncated Survivin (aa 1-120) with improved solubility; made in house; host or cells: Escherichia coli soluBL21
T3 sequence (O15392 1-120 K90T/K103T): as the sequence (O15392 1-120) above, with K90T, K103T counted along it
Protocol: as §1, §2, §3, §4

[4] = fraction of sample 15 (w/o Tweezer)
[5] = fraction of sample 22 (w/o tweezer)

Compound	CRM1: Peak area determined with ImageJ [1]	CRM1 intensity_normalised on GST-Surv intensity (samples 1-14) [1]	CRM1: Control w/o GST-Survivin subtracted (sample 16 or 23) [1]	GST-Surv: Peak area determined with ImageJ [1]	GST-Surv: Control w/o GST-Survivin subtracted (sample 2 or 9) [1]	Normalised CRM1 intensity, summary of replicates I and II [1]	inhibition of the interaction between CRM1 and GST-Survivin120 ([1]; pull-down, 50 µM ligand, wildtype)	CRM1 intensity_normalised on GST-Surv intensity (samples 1-14) and CRM1 intensity w/o incubation (sample 15 or 22) [1, 4]	CRM1 intensity_normalised on GST-Surv intensity (samples 1-14) and CRM1 intensity w/o incubation (sample 15 or 22) ([1]; w/o Tweezer = 100)	ΔH ([2]; ITC, Survivin120 K90/103T)	Kd ([2]; ITC, Survivin120 K90/103T, PBS pH 7.4, 25 °C, one set of sites model, read-out: KD)	CRM1: Peak area determined with ImageJ [3]	CRM1 intensity_normalised on GST-Surv intensity (samples 1-14) [3]	CRM1: Control w/o GST-Survivin subtracted (sample 16 or 23) [3]	GST-Surv: Peak area determined with ImageJ [3]	GST-Surv: Control w/o GST-Survivin subtracted (sample 2 or 9) [3]	Normalised CRM1 intensity, summary of replicates I and II [3]	CRM1 intensity_normalised on GST-Surv intensity (samples 1-14) and CRM1 intensity w/o incubation (sample 15 or 22) [3, 5]	CRM1 intensity_normalised on GST-Surv intensity (samples 1-14) and CRM1 intensity w/o incubation (sample 15 or 22) ([3]; w/o tweezer = 100)	Kd [2]
O=P(O)(O)Oc1c2c(c(OP(=O)(O)O)c3c1C1CC3c3cc4c(cc31)C1CC4c3ccccc31)C1CC2c2cc3c(cc21)C1CC3c2ccccc21 [TW, reference compound]	21154.6	0.3073	16296.9	53864.7	53029.3	86.9559% and 97.9595%	inactive	0.8696	86.9559%	-0.6 kcal	49 ± 5 µM	39038.4	0.5728	34329.1	62533.1	59934	90.4067%	0.9041	90.4067%	
CC(C)C[C@H](NC(=O)[C@H](Cc1ccccc1)NC(=O)[C@H](CCC(=O)O)NC(=O)CNC(=O)[C@H](CC(C)C)NC(=O)[C@@H](NC(=O)[C@H](CC(C)C)NC(=O)[C@H](CCC(=O)O)NC(=O)Cn1cc(CCOP(=O)(O)Oc2c3c(c(OP(=O)(O)O)c4c2C2CC4c4cc5c(cc42)C2CC5c4ccccc42)C2CC3c3cc4c(cc32)C2CC4c3ccccc32)nn1)[C@@H](C)O)C(=O)O [TW-ELTLGEFL] (HELM PEPTIDE1{[O=C(Cn1cc(CCOP(=O)(O)Oc2c3c(c(OP(=O)(O)O)c4c2C2CC4c4cc5c(cc42)C2CC5c4ccccc42)C2CC3c3cc4c(cc32)C2CC4c3ccccc32)nn1)[*:2]].E.L.T.L.G.E.F.L}$$$$V2.0)						18.4722% and 35.2764%			18.4722%								109.825% and 111.087%		109.825%	36 ± 10 µM
CC(C)C[C@H](NC(=O)[C@@H](NC(=O)[C@H](CC(C)C)NC(=O)[C@H](CCC(=O)O)NC(=O)Cn1cc(CCOP(=O)(O)Oc2c3c(c(OP(=O)(O)O)c4c2[C@H]2C[C@@H]4c4cc5c(cc42)[C@H]2C[C@@H]5c4ccccc42)[C@H]2C[C@@H]3c3cc4c(cc32)[C@H]2C[C@@H]4c3ccccc32)nn1)[C@@H](C)O)C(=O)O [TW-ELTL]	4951.05	0.007388	93.343	13469.9	12634.6	2.09% and 27.3879%		0.0209	2.09%	-1.3 kcal		11197.5	0.3807	6488.31	19643.8	17044.7	60.0833%	0.6008	60.0833%	50 ± 10 µM
